Measured values from article PMC4081582, “Enhancing Effect of Borneol and Muscone on Geniposide Transport across the Human Nasal Epithelial Cell Monolayer” (PLoS ONE, 2014).

How the values were obtained:
Type in all cases: cell-based, human
HNEC monolayer = experiment: TEER measurement of HNEC monolayer; conditions: for TEER after washing and incubating with BEGM:DMEM/F12 (1∶1) for 24 h: after permeation experiment; for TEER decrease during permeation studies, of the initial value: borneol 55.6, 111.2 µg·mL^−1, muscone 8.34, 16.68 µg·mL^−1, and combinations, P<0.05
Description: Transepithelial electrical resistance was measured using an EVOM instrument (Millipore Corporation, USA) to check the monolayer integrity. The TEER of untreated cells and cells treated with borneol and muscone was determined in BEGM:DMEM/F12 (1∶1) before the experiment, after the experiment and after 24 h.

HNECs [1] = experiment: MTT cytotoxicity assay on HNECs; conditions: 24 h
Description: The cytotoxicity of the main active ingredients in “Xing Nao Jing” on HNECs was evaluated by the methyl thiazolyl tetrazolium (MTT) colorimetric assay. Briefly, 100 µL of 5×10^4 cells·mL^−1 was seeded into 96-well plates. After 24 h, the medium was removed and replaced with a fresh medium containing increasing concentrations of geniposide, borneol, muscone and their combinations for another 24 h. After that, 15 µL of a 5 mg·mL^−1 MTT solution in 100 µL BEGM was added to each well. After 4 h of incubation, the supernatant was discarded and formazan crystals were dissolved in DMSO followed by vigorous mixing. Control wells were incubated with BEGM only and were treated similarly as above. The optical density was determined at 490 nm with a Multiskan Go microplate reader (Thermo, USA). The percent viability of the cells was determined from the absorbance values considering that of the control as 100%.
The percentage of cell toxicity in the MTT assay was calculated by the following equation (1): [drawing 1]

actin = experiment: Actin immunostaining of HNEC monolayer (tight junction); conditions: 3 h exposure with geniposide 50 µg·mL^−1, vs control
Text: Cells cultured on 12-well polyester membrane Transwell clear inserts were stained for actin. […] Fluorescence was visualized on an epifluorescence microscope (IX-71, Olympus, Japan) using a blue filter and images were taken using the analysis software.

HNECs [2] = experiment: Membrane fluidity of HNECs by FRAP
Description: The cells were seeded on cell plate at a density of 5×10^4 cells·cm^−2. The above formulation groups were added and the plates were incubated for 3 h at 37 °C in a 5% CO2 incubator. Cells were rinsed with HBSS and stained with NBD-C6-HPC at 2 µg·mL^−1 for 30 min.
A method of fluorescence recovery after photobleaching (FRAP) was used here. After the definition of line scanning position, length and photobleaching position, the monolayer was visualized by a Confocal Laser Scanning Microscope under the following conditions: excitation wavelength of 488 nm, emission wavelength of 530 nm, laser power for fluorescence bleaching of 100%, bleaching time of 0.7 s, scanning frequency of 1.65 s and the total scanning time of 100 s. The fluorescence intensity time-variation at the photobleaching position was recorded and image formation was obtained by confocal tomoscanning.
The membrane fluidity was represented by fluorescence recovery rate (R) which was calculated with the following equation (4): [drawing 4] where F0 is the instant fluorescence value after photobleaching, F1 is the fluorescence value before photobleaching and F2 is the fluorescence recovery value after photobleaching.

CC1(C)C2CCC1(C)C(O)C2 (stereo not shown) [borneol, Borneol]
TEER after washing and incubating with BEGM:DMEM/F12 (1∶1) for 24 h (HNEC monolayer): increased again
TEER decrease during permeation studies, of the initial value (HNEC monolayer): 10–20%
concentration range with no cell cytotoxicity (HNECs [1]): 0 to 300000 ng/mL
levels of the TJ proteins localized in the cell-cell junctions (actin): decreased
Fluorescence recovery rate R (%)±SD (HNECs [2]; Bo 27.8 µg·mL^−1 with Ge 50 µg·mL^−1, 3 h): 37.08±5.05%
Fluorescence recovery rate R (%)±SD (HNECs [2]; Bo 55.6 µg·mL^−1 with Ge 50 µg·mL^−1, 3 h): 49.60±4.21 %
Fluorescence recovery rate R (%)±SD (HNECs [2]; Bo 111.2 µg·mL^−1 with Ge 50 µg·mL^−1, 3 h): 57.33±4.62 %

C[C@@H]1CCCCCCCCCCCCC(=O)C1 [muscone, Muscone]
TEER after washing and incubating with BEGM:DMEM/F12 (1∶1) for 24 h (HNEC monolayer): increased again
TEER decrease during permeation studies, of the initial value (HNEC monolayer): 10–20%
levels of the TJ proteins localized in the cell-cell junctions (actin): decreased
Fluorescence recovery rate R (%)±SD (HNECs [2]; Mu 4.17 µg·mL^−1 with Ge 50 µg·mL^−1, 3 h): 36.43±3.37%
Fluorescence recovery rate R (%)±SD (HNECs [2]; Mu 8.34 µg·mL^−1 with Ge 50 µg·mL^−1, 3 h): 45.45±1.68 %
Fluorescence recovery rate R (%)±SD (HNECs [2]; Mu 16.68 µg·mL^−1 with Ge 50 µg·mL^−1, 3 h): 49.77±5.63 %
